In series [1] the test system is NCI-H1975 cells. Put plainly: In vivo anticancer activity, NCI-H1975 xenograft (Experimental Example 1). More on the design: species or system Balb/c nude mice. To be noted: for TGI %: Table 7 summary, NCI-H1975 (EGFR TKI resistant). The protocol: Measurements of body weights and tumor sizes were randomized for n=7 per group using in-house randomization software. The tumor size was calculated from measurements of the longest axis (length, m) and the shortest axis (width, m) according to the following formula: Tumor size (mm^3): Width (mm)×Width (mm)×Length (mm)/2
The anticancer activity depending on the administration was evaluated by tumor growth inhibition, (TGI, %) calculated according to the following formulas.
When the tumor size of the drug-administered group is larger than the initial tumor size: % TGI=100*(1−(tumor volumeDay X−tumor volumeInitial for treated group)/(tumor volumeDay X−tumor volumeInitial for Vehicle group))
When the tumor size of the drug-administered group is smaller than the initial tumor size: % TGI=100+100*(1−(Treated group tumor volumeDayX/Treated group tumor volumeinitial))
Herein, mortality indicated deaths resulting from drug administration.
Herein, maximum body weight loss (MBL) means the largest loss of body weight caused by drug administration and is an important factor for determining maximum tolerable dose (MTD). The change of body weight was expressed as percentage of the body weight just before drug administration (D1). As a rule, the dose at which 10% or more of the body weight was lost was determined as the MTD.

Series [2] deals with HCC827 cells. Put plainly: In vivo anticancer activity, HCC827 xenograft (Experimental Example 3). Conditions: for MBL (%): D11; for TGI %: Table 7 summary, HCC827 (EGFR TKI sensitive), dose not given.
The test system of series [3] is NCI-H460 cells. Format: in vivo, Balb/c nude mice. To be noted: for TGI %: Table 7 summary, NCI-H460 (EGFR TKI resistant), Cpd 1-1 given TIW. The protocol:
From Day 6 (D1) to […] (D12) after the transplantation, three groups of the NCI-H460-transplanted mice were administered with compound of Chemical Formula 1-1 or paclitaxel as summarized in Table 3, below.

For series [4], the system named is NCI-H1975 cells. In words: In vivo anticancer activity, NCI-H1975 xenograft (Experimental Example 5). The protocol: From Day 11 (D11) to Day 22 (D22) after the transplantation, three groups of the NCI-H1975-transplanted mice were administered with a bisodium salt of the compound of Chemical Formula 2-2 or cisplatin as summarized in Table 9, below.
The mean volume of tumors before the experiment (mean starting tumor volume) was 118 mm^3

The test system of series [5] is NCI-H1975 cells. Put plainly: In vivo anticancer activity, NCI-H1975 xenograft (Experimental Example 8). Also noted: species or system Balb/c nude mice. Conditions: Group 2: 60 mg/kg IV BIW for 2 weeks. The protocol: From Day 11 (D11) to Day 22 (D22) after the transplantation, two groups of the NCI-H1975-transplanted mice were administered with compound 1-7 as summarized in Table 13, below.

Series [6] relates to NCI-H1975 cells. In words: In vivo anticancer activity, NCI-H1975 xenograft (Experimental Example 6). Also noted: species or system Balb/c nude mice. The method, then: From Day 11 (D11) to Day 22 (D22) after the transplantation, five groups of the NCI-H1975-transplanted mice were administered with compounds 1-3 and 1-5 as summarized in Table 11, below.
Series [7] deals with NCI-H1975. Put plainly: In vitro cell growth inhibition (CellTiter-Glo), NCI-H1975. Conditions: Homo sapiens; NCI-H1975, 72 hrs. Format: cell-based. The protocol: (§1) This experiment aims to evaluate the in vitro anticancer activity of the pyrazino-triazine derivative (Chemical Formula 1-1P) of the present invention in various NSCLC cell lines.
(§2) NSCLC cells lines were seeded at a density of 5×10^3 cells/well into 96-well plates. Compound 1-1P and the reference drug doxorubicin were serially diluted by ½ in the concentration range of from 0.001 μM to 1 μM and the cells in each well were treated with each dilution in duplicate, followed by incubation for 72 hours in a 37° C., 5% CO2 incubator. CellTiter-Glo® (Luminescent Cell Viability Assay, #G7573, Promega) was added in an amount of 100 μL to each well and shaken for 2 min to lyze the cells. After incubation for 10 min at room temperature (25° C.), luminescence from each well was on a luminometer (Envision (Perkinelmer).
(§3) The anticancer activity depending on the administration of Compound 1-1P was evaluated over seven different NSCLC cell lines by cell growth inhibition 50 (GI50), a concentration needed to reduce the growth of treated cells to half that of untreated cells, calculated according to the following formula. GI50=(50−(y1−((y1−y2)/(x1−x2))*x1)/((y1−y2)/(x1−x2))
(§4) x1, x2=50% cell kill or lethal concentrations
(§5) y1, y2=cell densities at 50% cell kill or lethal concentrations
(In general: ATP-based viability assays read luminescence as a measure of living cells.)

Series [8] deals with NCI-H1650. Put plainly: In vitro cell growth inhibition (CellTiter-Glo), NCI-H1650. The format is cell-based. Conditions: Homo sapiens; NCI-H1650, 72 hrs. The method, then:
as §1, §2, §3, §4, §5

The subject of series [9] is A549. Put plainly: In vitro cell growth inhibition (CellTiter-Glo), A549. The format is cell-based. To be noted: Homo sapiens; A549, 72 hrs. The method, then:
as §1, §2, §3, §4, §5

The subject of series [10] is NCI-H23. In words: In vitro cell growth inhibition (CellTiter-Glo), NCI-H23. Format: cell-based. To be noted: Homo sapiens; NCI-H23, 72 hrs. The protocol: as §1, §2, §3, §4, §5
The subject of series [11] is PC6. In words: In vitro cell growth inhibition (CellTiter-Glo), PC6. Conditions: Homo sapiens, PC-6; PC6, 72 hrs. Format: cell-based. The protocol:
as §1, §2, §3, §4, §5

Series [12] deals with HCC827. In words: In vitro cell growth inhibition (CellTiter-Glo), HCC827. The format is cell-based. To be noted: Homo sapiens; HCC827, 72 hrs. The protocol:
as §1, §2, §3, §4, §5

Series [13] concerns NCI-H460. In words: In vitro cell growth inhibition (CellTiter-Glo), NCI-H460. Format: cell-based. To be noted: Homo sapiens; NCI-H460, 72 hrs. The method, then: as §1, §2, §3, §4, §5
[14] abbreviates: Group 2: 1-1 100 mg/kg iv once a day, ten injections (D8-12, 15-19).
Setting [15] is: Group 3: 1-1 150 mg/kg iv once a day, ten injections (D8-12, 15-19).
[16] abbreviates: Group 2: 1-1 100 mg/kg iv once a day, 20 injections over four weeks.
Setting [17] is: Group 3: 1-1 150 mg/kg iv once a day, 20 injections over four weeks.
Setting [18] is: Group 2: 1-1 150 mg/kg iv, six injections (D1, 3, 5, 8, 10, 12).
[19] abbreviates: Group 3: cisplatin 2.5 mg/kg IV BIW for 2 weeks.
Setting [20] is: Group 2: 200 mg/kg IV QDx5 for 2 weeks.
The mark [21] stands for this setting: Group 2: 40 mg/kg IV QDx5 for 2 weeks.
Where [22] appears, read: Group 3: 30 mg/kg IV QDx5 for 2 weeks.
The mark [23] stands for this setting: Group 6: paclitaxel 7.5 mg/kg ip once a week, two injections.
The mark [24] stands for this setting: Group 6: paclitaxel 10 mg/kg ip once per week, four injections.
Where [25] appears, read: Group 3: paclitaxel 20 mg/kg ip (D1, 3, 5, 8, 10, 12).

Counter-ions that a name gives are not always drawn. Like-named read-outs stand apart in the source and are kept apart here. A value given as a limit tells only on which side of the number the result lay.

Turning to `C=CCN1CC(=O)N2[C@@H](Cc3ccc(OP(=O)([O-])O)cc3)C(=O)N(Cc3cccc4c(C(C)=O)cn(C)c34)C[C@@H]2N1C(=O)NCc1ccccc1.[Na+]` [Compound 1-1], the “Tumor size on D22 compared with vehicle control” value in [1] (D22, dose not given) is on record as “significantly reduced”. Moreover, in series [1] (setting [14]), the Mortality is listed as 0/7, the “TGI % D22” value stood at 74% and the “Tumor size @D 22) (Mean ± S.E. mm3)” value is given as 307 ± 97 mm3. Moreover, in series [1] (setting [15]), the Mortality is listed as 0/7, the “TGI % D22” value is on record as 109% and the “Tumor size @D 22) (Mean ± S.E. mm3)” value is on record as 57 ± 22 mm3. In [1] (dose not given), this compound returned a TGI % of 100%. In series [2] (setting [16]), the Mortality is recorded as 0/7, the “TGI % D33” value came out at 50%, the “Tumor size @D 33 (Mean ± S.E. mm^3)” value is listed as 380 ± 29 mm^3 and the “MBL (%)” value is 1 (D11) %. Further, in series [2] (setting [17]), the Mortality is given as 0/7, the “TGI % D33” value turned out to be 68%, the “Tumor size @D 33 (Mean ± S.E. mm^3)” value stood at 262 ± 30 mm^3 and the “MBL (%)” value was 1 (D11) %. In series [2], this compound displayed a TGI % of 78%. In series [3] (setting [18]), the Mortality was 0/6, the “TGI % D12” value is listed as 25% and the “Tumor size @D 12 (Mean ± S.E. mm^3)” value amounted to 1196 ± 247 mm^3. Further, in series [3] (Group 2: 1-1 150 mg/kg iv, six injections (D1, 3, 5, 8, 10, 12), @D2), the “MBL (%)” value is given as 4 (@D2) %. In series [3], this compound came in with a TGI % of 25%.
As for `N.N.[Cl][Pt][Cl]` [Cisplatin, reference compound], in series [4] (setting [19]), the Mortality is recorded as 0/6, the “TGI % D22” value is 23% and the “Tumor size @D 22 (Mean ± S.E. mm^3)” value is reported as 750 ± 53 mm^3.
Regarding `C[C@H]1[C@H]2N(C(=O)CN(C)N2C(=O)NCc2ccccc2)[C@@H](Cc2ccc(OP(=O)(O)O)cc2)C(=O)N1Cc1cccc2cccnc12` [2Na Salt of Cpd. 2-2], in series [4] (setting [20]), the “MBL (%)” value is listed as “no loss”, the Mortality was 0/6, the “TGI % D22” value stood at 27% and the “Tumor size @D 22 (Mean ± S.E. mm^3)” value is given as 720 ± 104 mm^3.
With `C=CCN1CC(=O)N2[C@@H](Cc3ccc(O)cc3)C(=O)N(Cc3cccc4c(C(=O)Nc5ccc(NCCN6CCOCC6)nc5)cn(C)c34)C[C@@H]2N1C(=O)NCc1ccccc1.Cl` [Compound 1-7], in series [5], the Mortality is on record as 0/5, the “TGI % D22” value was determined as 41% and the “Tumor size @D 22 (Mean ± S.E. mm^3)” value was found to be 410 mm^3.
On to `C=CCN1CC(=O)N2[C@@H](Cc3ccc(OP(=O)(O)O)cc3)C(=O)N(Cc3cccc4c(-c5ccc(C(=O)N6CCCCC6)cc5)cn(C)c34)C[C@@H]2N1C(=O)NCc1ccccc1` [Compound 1-3], for which, in series [6] (setting [21]), the Mortality is 0/6, the “TGI % D22” value is 62% and the “Tumor size @D 22 (Mean ± S.E. mm^3)” value stood at 571 ± 38 mm^3. For the same compound, the “MBL (%)” value in [6] (Group 2: 40 mg/kg IV QDx5 for 2 weeks, D19) was 4 (D19) %.
Consider `C=CCN1CC(=O)N2[C@@H](Cc3ccc(OP(=O)(O)O)cc3)C(=O)N(Cc3cccc4c(C(=O)Nc5ccc(N(C)C)nc5)cn(C)c34)C[C@@H]2N1C(=O)NCc1ccccc1` [Compound 1-5], for which, in series [6] (setting [22]), the Mortality is 0/6, the “TGI % D22” value was 71% and the “Tumor size @D 22 (Mean ± S.E. mm^3)” value was found to be 464 ± 45 mm^3. Moreover, the “MBL (%)” value in [6] (Group 3: 30 mg/kg IV QDx5 for 2 weeks, D12) is listed as 5 (D12) %.
One may read the GI50 as the concentration that inhibits growth by half. Low values mean greater sensitivity of the cells, high ones lower sensitivity of the cells. For the compound `C=CCN1CC(=O)N2[C@@H](Cc3ccc(O)cc3)C(=O)N(Cc3cccc4c(C(C)=O)cn(C)c34)C[C@@H]2N1C(=O)NCc1ccccc1` [Compound 1-1P], the GI50 was 111 nM in series [7]; 156 nM in [8]; 372 nM in [9]; 67 nM in series [10]; 493 nM in series [11]; 115 nM in series [12]. The compound further had a GI50 in series [13] of 272 nM.
Consider `CC(=O)O[C@H]1C(=O)[C@@]2(C)[C@H]([C@H](OC(=O)c3ccccc3)[C@]3(O)C[C@H](OC(=O)[C@H](O)[C@@H](NC(=O)c4ccccc4)c4ccccc4)C(C)=C1C3(C)C)[C@]1(OC(C)=O)CO[C@@H]1C[C@@H]2O` [Paclitaxel, reference compound], for which, in [1] (setting [23]), the Mortality is on record as 0/7, the “TGI % D22” value was 28% and the “Tumor size @D 22) (Mean ± S.E. mm3)” value was found to be 736 ± 79 mm3. This compound displayed a TGI % in series [1] (dose not given) of more than 30%. In series [2] (setting [24]), the Mortality was 0/6, the “TGI % D33” value stood at 18% and the “Tumor size @D 33 (Mean ± S.E. mm^3)” value was 557 ± 83 mm^3. Also, in [2], the TGI % is on record as more than 18%. Also, in series [3] (setting [25]), the Mortality is given as 0/6, the “TGI % D12” value is 15% and the “Tumor size @D 12 (Mean ± S.E. mm^3)” value worked out at 1339 ± 260 mm^3. The TGI % in [3] is listed as more than 15%.

Source of the values: patent US9353119B2, “Composition for preventing and treating non-small cell lung cancer, containing pyrazino-triazine derivatives” (JW PHARMACEUTICAL CORPORATION, priority 2011, dated 2016).
